Patent US11905252B2, “Compounds” (INFLAZOME LIMITED, priority 2018, dated 2024)

Molecular target: T1, NLRP3 (Homo sapiens, UniProt Q96P20)
T1 construct: Seed THP-1 cells (25,000 cells/well) containing 1.0 μg/ml LPS; host or cells: THP-1 cells, LPS-primed, nigericin-stimulated
Assay: THP-1 cells pyroptosis assay (LPS-primed, nigericin-stimulated, resazurin readout)
Format: cell-based
Details: 1 μg/ml LPS, 5 μM nigericin
Description: THP-1 cells (ATCC #TIB-202) were grown in RPMI containing L-glutamine (Gibco #11835) supplemented with 1 mM sodium pyruvate (Sigma #S8636) and penicillin (100 units/ml)/streptomycin (0.1 mg/ml) (Sigma #P4333) in 10% Fetal Bovine Serum (FBS) (Sigma #F0804). The cells were routinely passaged and grown to confluency (˜10^6 cells/ml). On the day of the experiment, THP-1 cells were harvested and resuspended into RPMI medium (without FBS). The cells were then counted and viability (>90%) checked by Trypan blue (Sigma #T8154). Appropriate dilutions were made to give a concentration of 625,000 cells/ml. To this diluted cell solution was added LPS (Sigma #L4524) to give a 1 μg/ml Final Assay Concentration (FAC). 40 μl of the final preparation was aliquoted into each well of a 96-well plate. The plate thus prepared was used for compound screening.
The following method step-by-step assay was followed for compound screening. • 1. Seed THP-1 cells (25,000 cells/well) containing 1.0 μg/ml LPS in 40 μl of RPMI medium (without FBS) in 96-well, black walled, clear bottom cell culture plates coated with poly-D-lysine (VWR #734-0317) • 2. Add 5 μl compound (8 points half-log dilution, with 10 μM top dose) or vehicle (DMSO 0.1% FAC) to the appropriate wells • 3. Incubate for 3 hrs at 37° C. in 5% CO2 • 4. […] Plates were read in an Envision reader at Ex 560 nm and Em 590 nm • 9. […]

T1 sequence (Q96P20 whole entry): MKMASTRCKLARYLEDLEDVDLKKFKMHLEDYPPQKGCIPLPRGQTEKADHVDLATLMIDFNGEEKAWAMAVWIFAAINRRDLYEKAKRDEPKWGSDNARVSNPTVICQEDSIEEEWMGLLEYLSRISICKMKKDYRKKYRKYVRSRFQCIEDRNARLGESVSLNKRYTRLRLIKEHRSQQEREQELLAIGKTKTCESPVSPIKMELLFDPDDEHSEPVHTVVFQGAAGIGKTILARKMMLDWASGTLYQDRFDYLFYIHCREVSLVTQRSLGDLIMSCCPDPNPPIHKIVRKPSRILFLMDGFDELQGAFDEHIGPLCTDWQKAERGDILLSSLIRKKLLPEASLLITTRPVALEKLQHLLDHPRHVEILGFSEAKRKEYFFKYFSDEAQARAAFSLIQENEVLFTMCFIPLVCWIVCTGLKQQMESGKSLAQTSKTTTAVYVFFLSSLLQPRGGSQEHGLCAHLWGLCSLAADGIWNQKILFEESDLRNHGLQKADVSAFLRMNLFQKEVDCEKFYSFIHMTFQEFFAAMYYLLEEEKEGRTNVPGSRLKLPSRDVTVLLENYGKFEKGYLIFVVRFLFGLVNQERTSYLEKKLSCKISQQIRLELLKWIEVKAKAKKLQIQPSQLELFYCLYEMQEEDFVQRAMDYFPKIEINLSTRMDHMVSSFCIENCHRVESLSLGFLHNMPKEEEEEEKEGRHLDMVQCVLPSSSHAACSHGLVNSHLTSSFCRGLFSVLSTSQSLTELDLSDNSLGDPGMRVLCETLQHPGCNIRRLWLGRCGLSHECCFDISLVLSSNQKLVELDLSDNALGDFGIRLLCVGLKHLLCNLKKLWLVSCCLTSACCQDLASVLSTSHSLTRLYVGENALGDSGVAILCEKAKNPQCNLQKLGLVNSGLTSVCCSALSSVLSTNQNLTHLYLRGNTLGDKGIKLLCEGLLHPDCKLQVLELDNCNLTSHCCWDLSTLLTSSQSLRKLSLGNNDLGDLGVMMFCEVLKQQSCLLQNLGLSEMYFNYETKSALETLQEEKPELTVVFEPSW

IC50 [nM]	SMILES
160 to 640	Cn1nc(S(=O)(=O)NC(=O)Nc2c3c(c(C#N)c4c2CCC4)CCC3)cc1C(C)(C)O [Example 1, N-((8-Cyano-1,2,3,5,6,7-hexahydro-s-indacen-4-yl)carbamoyl)-5-(2-hydroxypropan-2-yl)-1-methyl-1H-pyrazole-3-sulfonamide]
≤ 160	Cn1nc(S(=O)(=O)NC(=O)Nc2c3c(c(Br)c4c2CCC4)CCC3)cc1C(C)(C)O [Example 2, N-((8-Bromo-1,2,3,5,6,7-hexahydro-s-indacen-4-yl)carbamoyl)-5-(2-hydroxypropan-2-yl)-1-methyl-1H-pyrazole-3-sulfonamide]
